# According to PubChem BioAssay (NCI):
#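 Five compound concentrations were applied to cells in 96-well plates for 48 hours; endpoints were derived by simple linear interpolation of the resulting dose-response curve. TGI: total growth inhibition.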
# How the values were obtained:
# Test in all cases: DTP human tumour cell line panel, 48 h
# BT-549 breast = test system: BT-549 breast
# EKVX NSCLC = test system: EKVX NSCLC
# HCT-15 colon = test system: HCT-15 colon
# HL-60(TB) leukemia = test system: HL-60(TB) leukemia
# HS 578T breast = test system: HS 578T breast
# HT29 colon = test system: HT29 colon
# IGROV1 ovarian = test system: IGROV1 ovarian
# KM12 colon = test system: KM12 colon
# LOX IMVI melanoma = test system: LOX IMVI melanoma
# NCI-H23 lung = test system: NCI-H23 lung
# PC-3 prostate = test system: PC-3 prostate
# SF-268 CNS = test system: SF-268 CNS
# SK-MEL-28 melanoma = test system: SK-MEL-28 melanoma
# U251 CNS = test system: U251 CNS
# UACC-257 melanoma = test system: UACC-257 melanoma
# UO-31 renal = test system: UO-31 renal
SMILES,TGI (BT-549 breast),TGI (EKVX NSCLC),TGI (HCT-15 colon),TGI (HL-60(TB) leukemia),TGI (HS 578T breast),TGI (HT29 colon),TGI (IGROV1 ovarian),TGI (KM12 colon),TGI (LOX IMVI melanoma),TGI (NCI-H23 lung),TGI (PC-3 prostate),TGI (SF-268 CNS),TGI (SK-MEL-28 melanoma),TGI (U251 CNS),TGI (UACC-257 melanoma),TGI (UO-31 renal)
COc1cc(OC)c2c(c1)OC(c1ccccc1)CC2=O (centres undefined),> 10 µM,> 10 µM,> 10 µM,> 10 µM,> 10 µM,> 10 µM,> 10 µM,> 10 µM,> 10 µM,> 10 µM,> 10 µM,> 10 µM,> 10 µM,> 10 µM,> 10 µM,> 10 µM
COc1ccc(C2N(c3ccc(F)cc3)C(=O)N3C(c4ccc(OC)cc4)N(c4ccc(F)cc4)C(=O)N23)cc1 (centres undefined),> 100 µM,> 100 µM,> 100 µM,> 100 µM,> 100 µM,> 100 µM,> 100 µM,> 100 µM,> 100 µM,> 100 µM,> 100 µM,> 100 µM,> 100 µM,> 100 µM,> 100 µM,> 100 µM
NC(Cc1ccc(OCc2ccccc2)cn1)C(=O)O (centres undefined),> 100 µM,> 100 µM,> 100 µM,> 100 µM,> 100 µM,> 100 µM,> 100 µM,> 100 µM,> 100 µM,> 100 µM,> 100 µM,> 100 µM,> 100 µM,> 100 µM,> 100 µM,> 100 µM
Cc1cc(S(=O)(=O)Nc2n[nH]c(Nc3ccc(Cl)cc3)n2)c(S)cc1Cl,> 100 µM,> 100 µM,> 100 µM,> 100 µM,> 100 µM,> 100 µM,> 100 µM,> 100 µM,> 100 µM,> 100 µM,> 100 µM,> 100 µM,> 100 µM,> 100 µM,> 100 µM,> 100 µM
COc1ccc(N=NC(=O)NC(Cc2ccccc2)C(=O)O)cc1 (centres undefined),> 100 µM,> 100 µM,> 100 µM,> 100 µM,> 100 µM,> 100 µM,> 100 µM,> 100 µM,> 100 µM,> 100 µM,> 100 µM,> 100 µM,> 100 µM,> 100 µM,> 100 µM,> 100 µM
COc1cc(NS(C)(=O)=O)ccc1Nc1cc[nH]c2ccc3nccc3c12,28.7 µM,51.3 µM,> 100 µM,53.2 µM,> 100 µM,31.3 µM,31.2 µM,28.2 µM,36 µM,29.8 µM,26 µM,25 µM,31.2 µM,27.3 µM,33.2 µM,> 100 µM
C=CCn1c(-c2ccc([N+](=O)[O-])cc2)cs/c1=N\C(P(=O)(O)O)P(=O)(O)O,> 100 µM,> 100 µM,> 100 µM,90.6 µM,> 100 µM,> 100 µM,> 100 µM,> 100 µM,> 100 µM,> 100 µM,> 100 µM,> 100 µM,> 100 µM,> 100 µM,> 100 µM,> 100 µM
C=CCN(c1cc(OCc2ccccc2)c2[nH]cc(C)c2c1)S(C)(=O)=O,> 100 µM,67.9 µM,> 100 µM,> 100 µM,> 100 µM,> 100 µM,> 100 µM,> 100 µM,> 100 µM,> 100 µM,> 100 µM,> 100 µM,> 100 µM,> 100 µM,> 100 µM,> 100 µM
O=C(O)CCCC(=O)Nn1c(Cc2ccc(Cl)cc2)n[nH]c1=O,> 100 µM,> 100 µM,> 100 µM,> 100 µM,> 100 µM,> 100 µM,> 100 µM,> 100 µM,> 100 µM,> 100 µM,> 100 µM,> 100 µM,> 100 µM,> 100 µM,> 100 µM,> 100 µM
COC(=O)/C=C1\C(=O)N(C(C)=O)c2ccc(Br)cc21,22.8 µM,32.1 µM,21.7 µM,5.66 µM,36.8 µM,25 µM,20.7 µM,28.6 µM,20.3 µM,32.4 µM,20.9 µM,21.1 µM,28.6 µM,20 µM,22.8 µM,3.91 µM
COc1ccccc1NC(=S)N/N=C/c1c(C)n(C)n(-c2ccccc2)c1=O,> 100 µM,> 100 µM,> 100 µM,> 100 µM,> 100 µM,> 100 µM,> 100 µM,> 100 µM,> 100 µM,> 100 µM,> 100 µM,> 100 µM,> 100 µM,> 100 µM,> 100 µM,> 100 µM
Cc1cn([C@@H]2C[C@@H]2CO)c(=O)[nH]c1=O,> 100 µM,> 100 µM,> 100 µM,> 100 µM,> 100 µM,> 100 µM,> 100 µM,> 100 µM,> 100 µM,> 100 µM,> 100 µM,> 100 µM,> 100 µM,> 100 µM,> 100 µM,> 100 µM
CC(=O)C(=[N+]=[N-])C(=O)N1CCOC1=O,> 10 µM,> 10 µM,> 10 µM,> 10 µM,> 10 µM,> 10 µM,> 10 µM,> 10 µM,> 10 µM,> 10 µM,> 10 µM,> 10 µM,> 10 µM,> 10 µM,> 10 µM,> 10 µM
O=C(CC(=O)N1N=C(N2CCCCC2)CC1c1ccccc1)Nc1ccccc1 (centres undefined),> 100 µM,> 100 µM,> 100 µM,> 100 µM,> 100 µM,> 100 µM,> 100 µM,> 100 µM,> 100 µM,> 100 µM,> 100 µM,> 100 µM,> 100 µM,> 100 µM,> 100 µM,> 100 µM
